Tested on: ddY mice
Assay: Oxylipin analysis of plasma and brain regions of juvenile offspring after maternal glyphosate exposure
Assay type: in vivo, mouse
Conditions: juvenile offspring (P28), maternal 0.095% glyphosate
Source text: Collection of blood and brain samples and oxylipin analysis. Water or 0.095% glyphosate was given to pregnant mice from E5 to P21, as described above. The male offspring were separated from their mothers at weaning (P21). At juvenile (P28) stage, mice were deeply anesthetized with isoflurane and plasma was collected. Subsequently, brains were removed from the skulls. For Western blot analysis, brain regions such as prefrontal cortex (PFC), hippocampus, and striatum, were dissected from brain on ice. The samples were stored at −80° C. before assay. For oxylipin analysis, plasma was collected after isoflurane anesthesia at juvenile (P28) stage. Subsequently, PFC, hippocampus, and striatum were dissected from brain on ice, and the samples were stored at −80° C. before assay. Measurement of eicosanoids in the plasma and brain regions was performed at UC Davis using the previous method (4).

O=C(O)CNCP(=O)(O)O [glyphosate]
4,5-DiHDPE level (plasma): 1.527 ± 0.112 nmol/mL
5(6)-EpETrE level (plasma): 24.279 ± 3.524 nmol/mL
5,6-DiHETrE level (plasma): 0.417 ± 0.047 nmol/mL
5-HEPE level (plasma): 8.117 ± 1.251 nmol/mL
5-HETE level (plasma): 2.137 ± 0.335 nmol/mL
5-oxo-ETE level (plasma): 20.987 ± 2.839 nmol/mL
6-keto-PGF1a level (plasma): 0.252 ± 0.043 nmol/mL
7(8)-EpDPE level (plasma): 195.343 ± 16.718 nmol/mL
8(9)-EpETE level (plasma): 0.863 ± 0.138 nmol/mL
8(9)-EpETrE alt level (plasma): 3.325 ± 0.409 nmol/mL
8(9)-EpETrE level (plasma): 13.892 ± 2.938 nmol/mL
8-HEPE level (plasma): 7.652 ± 0.970 nmol/mL
8-HETE level (plasma): 7.349 ± 0.718 nmol/mL
9(10)-EpOME level (plasma): 28.326 ± 4.243 nmol/mL
9,10,13-TriHOME level (plasma): 5.220 ± 0.403 nmol/mL
9,12,13-TriHOME level (plasma): 12.758 ± 1.096 nmol/mL
9-HETE level (plasma): 0.056 ± 0.012 nmol/mL
9-HODE level (plasma): 17.293 ± 2.482 nmol/mL
10(11)-EpDPE level (plasma): 13.285 ± 1.234 nmol/mL
11(12)-EpETE level (plasma): 2.579 ± 0.284 nmol/mL
11(12)-EpETrE level (plasma): 6.360 ± 1.002 nmol/mL
11,12-,15-TriHETrE level (plasma): 0.300 ± 0.072 nmol/mL
11,12-DiHETrE level (plasma): 0.394 ± 0.045 nmol/mL
11-HETE level (plasma): 1.949 ± 0.131 nmol/mL
12(13)-EpOME level (plasma): 38.512 ± 4.378 nmol/mL
12-HEPE level (plasma): 92.380 ± 15.026 nmol/mL
12-HETE level (plasma): 90.069 ± 11.494 nmol/mL
12-oxo-ETE level (plasma): 500.173 ± 99.031 nmol/mL
13(14)-EpDPE level (plasma): 8.177 ± 0.873 nmol/mL
13,14-DiHDPE level (plasma): 0.530 ± 0.056 nmol/mL
13-HODE level (plasma): 66.733 ± 9.200 nmol/mL
14(15)-EpETE level (plasma): 2.316 ± 0.258 nmol/mL
14(15)-EpETrE level (plasma): 4.038 ± 0.637 nmol/mL
14,15-DiHETrE level (plasma): 0.575 ± 0.051 nmol/mL
15(16)-EpODE level (plasma): 14.493 ± 1.929 nmol/mL
15(S)-HETrE level (plasma): 0.743 ± 0.167 nmol/mL
15-HETE level (plasma): 1.985 ± 0.228 nmol/mL
15-oxo-ETE level (plasma): 0.746 ± 0.105 nmol/mL
16(17)-EpDPE level (plasma): 7.978 ± 0.799 nmol/mL
16,17-DiHDPE level (plasma): 1.955 ± 0.201 nmol/mL
17(18)-EpETE level (plasma): 4.845 ± 0.480 nmol/mL
17-HDoHE level (plasma): 1386.287 ± 316.090 nmol/mL
19(20)-EpDPE level (plasma): 19.092 ± 1.307 nmol/mL
19,20-DiHDPE level (plasma): 6.507 ± 0.444 nmol/mL
EKODE level (plasma): 12.405 ± 2.140 nmol/mL
LTB3 level (plasma): 2.540 ± 0.525 nmol/mL
PGD2 level (plasma): 0.138 ± 0.010 nmol/mL
PGE2 level (plasma): 0.704 ± 0.010 nmol/mL
PGF2a level (plasma): 0.462 ± 0.048 nmol/mL
TXB2 level (plasma): 0.548 ± 0.069 nmol/mL
4,5-DiHDPE level (striatum): 1.331 ± 0.320 pmol/g
5(6)-EpETrE level (striatum): 2286.424 ± 589.971 pmol/g
5,6-DiHETrE level (striatum): 0.655 ± 0.058 pmol/g
5-HEPE level (striatum): 1.966 ± 0.253 pmol/g
5-HETE level (striatum): 21.009 ± 1.874 pmol/g
5-oxo-ETE level (striatum): 177.806 ± 23.342 pmol/g
6-keto-PGF1a level (striatum): 70.151 ± 4.942 pmol/g
7(8)-EpDPE level (striatum): 3684.482 ± 1464.079 pmol/g
8(9)-EpETE level (striatum): 2.863 ± 1.693 pmol/g
8(9)-EpETrE alt level (striatum): 256.271 ± 63.811 pmol/g
8(9)-EpETrE level (striatum): 7513.6 ± 2879.9 pmol/g
8-HEPE level (striatum): 1.198 ± 0.106 pmol/g
8-HETE level (striatum): 7.063 ± 1.134 pmol/g
9(10)-EpOME level (striatum): 64.909 ± 24.089 pmol/g
9,10,13-TriHOME level (striatum): 35.219 ± 5.532 pmol/g
9,12,13-TriHOME level (striatum): 59.110 ± 9.487 pmol/g
9-HETE level (striatum): 2.001 ± 0.403 pmol/g
9-HODE level (striatum): 42.211 ± 2.648 pmol/g
10(11)-EpDPE level (striatum): 283.118 ± 111.688 pmol/g
11(12)-EpETE level (striatum): 2.950 ± 0.707 pmol/g
11(12)-EpETrE level (striatum): 1056.655 ± 383.807 pmol/g
11,12-,15-TriHETrE level (striatum): 28.513 ± 2.432 pmol/g
11,12-DiHETrE level (striatum): 1.461 ± 0.114 pmol/g
11-HETE level (striatum): 263.508 ± 14.043 pmol/g
12(13)-EpOME level (striatum): 75.548 ± 26.478 pmol/g
12-HEPE level (striatum): 16.777 ± 3.707 pmol/g
12-HETE level (striatum): 402.213 ± 68.023 pmol/g
12-oxo-ETE level (striatum): 2383.322 ± 205.470 pmol/g
13(14)-EpDPE level (striatum): 196.586 ± 72.402 pmol/g
13,14-DiHDPE level (striatum): 0.849 ± 0.088 pmol/g
13-HODE level (striatum): 61.551 ± 3.988 pmol/g
14(15)-EpETE level (striatum): 2.368 ± 0.640 pmol/g
14(15)-EpETrE level (striatum): 991.031 ± 327.438 pmol/g
14,15-DiHETrE level (striatum): 2.399 ± 0.255 pmol/g
15(16)-EpODE level (striatum): 0.837 ± 0.335 pmol/g
15(S)-HETrE level (striatum): 13.863 ± 0.898 pmol/g
15-HETE level (striatum): 312.592 ± 16.237 pmol/g
15-oxo-ETE level (striatum): 15.203 ± 3.961 pmol/g
16(17)-EpDPE level (striatum): 186.178 ± 73.985 pmol/g
16,17-DiHDPE level (striatum): 1.427 ± 0.114 pmol/g
17(18)-EpETE level (striatum): 7.282 ± 2.840 pmol/g
17-HDoHE level (striatum): 7832.089 ± 1004.299 pmol/g
19(20)-EpDPE level (striatum): 373.365 ± 128.458 pmol/g
19,20-DiHDPE level (striatum): 8.734 ± 0.672 pmol/g
EKODE level (striatum): 14.223 ± 1.256 pmol/g
LTB3 level (striatum): 74.130 ± 28.033 pmol/g
PGD2 level (striatum): 404.389 ± 30.557 pmol/g
PGE2 level (striatum): 61.254 ± 3.057 pmol/g
PGF2a level (striatum): 367.138 ± 24.248 pmol/g
TXB2 level (striatum): 219.314 ± 15.121 pmol/g

— patent US12357598B2, “Treatment of neurodevelopmental disorders” (THE REGENTS OF THE UNIVERSITY OF CALIFORNIA, priority 2018, dated 2025)
